Laboratory results published in patent publication US4179441A, “Fungidal and herbicidal 2-substituted-3-oxa-3aλ^4, 4-dithia-6-halo-1,5-diazapentalene” (Chevron Research Company, priority 1977, dated 1979).

Assays:
Septoria apii = details: in vivo
Erysiphe polygoni = test: Powdery Mildew (bean seedlings); assay type: in vivo; details: 240 h, 250 ppm spray on bean seedlings, about 10 days, relative to untreated check plants
Text: The powdery mildew test was made using bean seedlings (var. Bountiful) with well-developed primary leaves. The pathogen was Erysiphe polygoni. The bean seedlings were sprayed with a 250 ppm solution of the test compound in an acetone-water mixture containing a nonionic emulsifier. The treated plants were inoculated one day after spray application of the test compound with the pathogen. […] The rate of infection on the leaves was made after about 10 days. The percent disease control provided by a given test compound was based on the disease reduction relative to untreated check plants.

[1] = tested on: Crabgrass (Digitaria sanguinalis); test: Pre-Emergent herbicidal test; assay type: in vivo; details: 33 micrograms/cm^2, 3 weeks, 0-to-100 scale, 100 = complete kill
Protocol: (§1) Pre-emergent herbicidal tests on representative compounds of the invention were made using the following method:
(§2) An acetone solution of the test compound was prepared by mixing 750 mg of the compound, 220 mg of a nonionic surfactant and 25 ml of acetone. This solution was added to approximately 125 ml of water containing 156 mg of surfactant.
(§3) Seeds of the test vegetation were planted in a pot of soil and the test solution was sprayed uniformly onto the soil surface at a dose of 33 micrograms/cm^2. The pot was watered and placed in a greenhouse. […] At the end of this period, the herbicidal effectiveness of the compound was rated based on the physiological observations. A 0-to-100 scale was used, 0 representing no phytotoxicity, 100 representing complete kill.

[2] = tested on: Lambsquarter (Chenopodium album); test: Pre-Emergent herbicidal test; assay type: in vivo; details: 33 micrograms/cm^2, 3 weeks, 0-to-100 scale, 100 = complete kill
Protocol: as §1, §2, §3

[3] = tested on: Mustard (Brassica arvensis); test: Pre-Emergent herbicidal test; assay type: in vivo; details: 33 micrograms/cm^2, 3 weeks, 0-to-100 scale, 100 = complete kill
Protocol: as §1, §2, §3

[4] = tested on: Watergrass (Echinochloa crusgalli); test: Pre-Emergent herbicidal test; assay type: in vivo; details: 33 micrograms/cm^2, 3 weeks, 0-to-100 scale, 100 = complete kill
Protocol: as §1, §2, §3

Wild Oats (Avena fatua) [5] = test: Pre-Emergent herbicidal test; assay type: in vivo; details: 33 micrograms/cm^2, 3 weeks, 0-to-100 scale, 100 = complete kill
Protocol: as §1, §2, §3

Wild Oats (Avena fatua) [6] = test: Post-emergent herbicidal test; assay type: in vivo; details: 0-to-100 scale
[7] = tested on: Watergrass (Echinochloa crusgalli); test: Post-emergent herbicidal test; assay type: in vivo; details: 0-to-100 scale
[8] = tested on: Crabgrass (Digitaria sanguinalis); test: Post-emergent herbicidal test; assay type: in vivo; details: 0-to-100 scale
[9] = tested on: Mustard (Brassica arvensis); test: Post-emergent herbicidal test; assay type: in vivo; details: 0-to-100 scale
[10] = tested on: Lambsquarter (Chenopodium album); test: Post-emergent herbicidal test; assay type: in vivo; details: 0-to-100 scale

Cc1cc(Cl)ccc1OCC1=NC2=S(O1)SN=C2Cl (stereo not drawn) [Compound 19]
Celery Late Blight % Control (Septoria apii): 92%
pest or weed control at 250 ppm (Erysiphe polygoni): 57%
Herbicidal Effectiveness - Pre, C [1]: 85
Herbicidal Effectiveness - Pre, L [2]: 100
Herbicidal Effectiveness - Pre, M [3]: 100
Herbicidal Effectiveness - Pre, W [4]: 75
Herbicidal Effectiveness - Pre, O (Wild Oats (Avena fatua) [5]): 35
Herbicidal Effectiveness - Post, O (Wild Oats (Avena fatua) [6]): 10
Herbicidal Effectiveness - Post, W [7]: 40
Herbicidal Effectiveness - Post, C [8]: 0
Herbicidal Effectiveness - Post, M [9]: 100
Herbicidal Effectiveness - Post, L [10]: 95
